Laboratory results as given in paper PMC12844237, “A Novel Quinolone JH62 (E-2-(Tridec-4-en-1-yl)-quinolin-4(1H)-one) from Pseudomonas aeruginosa Exhibits Potent Anticancer Activity” (Microorganisms, 2025).

Legend:
[1] = tested on: AML12: mouse liver cell lines; assay: WST-1 cell viability, AML12; format: cell-based; details: AML12, non-cancer cell line
Source text: (§1) Different cells were utilized as follows: MEF: murine embryonic fibroblast (RRID: CVCL_L690); AML12: mouse liver cell lines (RRID: CVCL_0140); WI-38: human lung fibroblast cell lines (RRID: CVCL_0579); THLE-2: human liver epithelial cell lines (RRID: CVCL_3803); A549: human lung cancer cell lines (RRID: CVCL_0023); HEPG2: human liver cancer cell lines (RRID: CVCL_0027); HEP3B: human hepatoma cell lines (RRID: CVCL_0326); BxPC3: human pancreatic cancer cell lines (RRID: CVCL_0186); U87: human primary glioblastoma cell lines (RRID: CVCL_0022); DU145: human prostate cancer cell lines (RRID: CVCL_0105); MCF7: human breast cancer cell lines (RRID: CVCL_0031); HeLa: human cervical cancer cell lines (RRID: CVCL_0030); HCT116: human colon cancer cell lines (RRID: CVCL_0291). Cells were maintained in Dulbecco’s modified Eagle’s medium (DMEM, Gibco) supplemented with L-glutamine (Lonza) (2 mM), 10% fetal bovine serum (FBS, Hyclone), 1 × non-essential amino acids, and sodium pyruvate (1 mM). THLE-2 cells were maintained in THLE-2 Cell Complete Medium (Zhong Qiao Xin Zhou, Shanghai, China). Cells were incubated at 37 °C in a humidified incubator with 5% CO2. […]
(§2) Cell viability was assessed using the WST-1 assay, based on a previously reported method with slight modifications. […] Absorbance at OD450 was measured using a microplate reader (Synergy H1; BioTek Instruments, Winooski, VT, USA).

[2] = tested on: non-cancer cells (MEF, AML12, WI-38, and THLE-2); assay: WST-1 cell viability, panel of non-cancer cells; format: cell-based; details: across non-cancer cells (MEF, AML12, WI-38, and THLE-2)
Procedure: (§3) Cell viability was assessed using the WST-1 assay, based on a previously reported method with slight modifications. Briefly, cells were seeded at 1 × 10^4 cells per well in 96-well plates and then treated with different doses of JH62 or DOX for 0–72 h. The cells used included non-cancer cells (MEF, AML12, WI-38, and THLE-2) and cancer cells (A549, HEPG2, HEP3B, BxPC3, U87, DU145, MCF7, HeLa, and HCT116). The WST-1 reagent (Roche, Shanghai, China) was added to each well (10% vol/vol final concentration), followed by incubation for 3 h at 37 °C. Absorbance at OD450 was measured using a microplate reader (Synergy H1; BioTek Instruments, Winooski, VT, USA).

[3] = tested on: DU145: human prostate cancer cell lines; assay: WST-1 cell viability, DU145; format: cell-based; details: DU-145, DU145 (prostate) cancer cell line
Source text: as §1, §2

[4] = tested on: pqs gene cluster in ΔpqsA mutant strain; assay: Effect of exogenous JH62 on transcription of the pqs gene cluster; format: cell-based, Pseudomonas aeruginosa; details: ΔpqsA mutant supplemented with exogenous JH62
Source text: Since the pqs gene cluster is responsible for JH62 biosynthesis, we determined whether JH62 itself could regulate the expression of this cluster, potentially establishing a feedback loop. To this end, we supplemented the JH62-deficient ΔpqsA mutant with exogenous JH62 and assessed the pqs cluster transcription.

[5] = tested on: HeLa: human cervical cancer cell lines; assay: WST-1 cell viability, HeLa; format: cell-based; details: HeLa (cervical) cancer cell line
Source text: as §1, §2

cancer cell lines = assay: WST-1 cell viability, panel of cancer cell lines; format: cell-based; details: Homo sapiens; across the tested cancer cell lines
Procedure: as §3

[6] = tested on: HEP3B: human hepatoma cell lines; assay: WST-1 cell viability, HEP3B; format: cell-based; details: HEP3B (liver) cancer cell line
Source text: as §1, §2

[7] = tested on: WI-38: human lung fibroblast cell lines; assay: WST-1 cell viability, WI-38; format: cell-based; details: WI-38, non-cancer cell line
Source text: as §1, §2

[8] = tested on: A549 lung cancer cell colonies; assay: Cell colony formation assay; format: cell-based, human; details: compared to the control group
Source text: The cell colony formation assay, an in vitro method used to evaluate the proliferative capacity of cancer cells, was employed.

[9] = tested on: U87: human primary glioblastoma cell lines; assay: WST-1 cell viability, U87; format: cell-based; details: U87 (glioblastoma) cancer cell line
Source text: as §1, §2

A549 lung cancer cells = assay: Cell death inhibitor rescue (zVAD-fmk, Nec-1); format: cell-based, human; details: A549, zVAD-fmk and Nec-1 individually or in combination
Source text: Therefore, we investigated whether zVAD-fmk and Nec-1 could attenuate JH62-induced cell death in A549 lung cancer cells.

[10] = tested on: THLE-2: human liver epithelial cell lines; assay: WST-1 cell viability, THLE-2; format: cell-based; details: THLE-2, non-cancer cell line
Source text: as §1, §2

[11] = tested on: MEF: murine embryonic fibroblast; assay: WST-1 cell viability, MEF; format: cell-based; details: Mus musculus, non-cancer cell line
Source text: as §1, §2

A549 cells = assay: Comet assay; format: cell-based, human; details: A549, 1, 8, and 12 h
Procedure: Residual DNA damage was detected by alkaline single cell gel electrophoresis (Comet Assay) using the Trevigen Comet Assay Kit (Trevigen, Gaithersburg, MD, USA) following the manufacturer’s protocol with slight modifications. […] The treated cells were trypsinized and pelleted by centrifugation. The cell pellets were washed and resuspended in 2 mL of ice-cold PBS. The cell suspension was mixed 1:10 (vol/vol) with low-melting point agar at 42 °C and immediately pipetted onto a CometSlide™. Slides were incubated at 4 °C in the dark for 30 min, immersed in chilled lysis solution and incubated again at 4 °C for 30 min. Slides were placed in a horizontal electrophoresis chamber and electrophoresed with buffer NaOH (0.3 M) and EDTA (1 mM) at 1 V/cm for 15 min. Samples were dried and stained with Vista Green DNA dye (Cell Biolabs, Singapore). Comet tails were imaged using a model DM 2500 fluorescent microscope (Leica, Wetzlar, Germany) and quantified by Komet 5.5 software (Andor Technology, Belfast, UK). A minimum of 50 cells were scored per treatment. All experiments were performed independently in triplicate.

[12] = tested on: A549: human lung cancer cell lines; assay: WST-1 cell viability, A549; format: cell-based; details: for IC50: WST-1; for reduced viability: 24 h
Source text: Different cells were utilized as follows: MEF: murine embryonic fibroblast (RRID: CVCL_L690); AML12: mouse liver cell lines (RRID: CVCL_0140); WI-38: human lung fibroblast cell lines (RRID: CVCL_0579); THLE-2: human liver epithelial cell lines (RRID: CVCL_3803); A549: human lung cancer cell lines (RRID: CVCL_0023); HEPG2: human liver cancer cell lines (RRID: CVCL_0027); HEP3B: human hepatoma cell lines (RRID: CVCL_0326); BxPC3: human pancreatic cancer cell lines (RRID: CVCL_0186); U87: human primary glioblastoma cell lines (RRID: CVCL_0022); DU145: human prostate cancer cell lines (RRID: CVCL_0105); MCF7: human breast cancer cell lines (RRID: CVCL_0031); HeLa: human cervical cancer cell lines (RRID: CVCL_0030); HCT116: human colon cancer cell lines (RRID: CVCL_0291). Cells were maintained in Dulbecco’s modified Eagle’s medium (DMEM, Gibco) supplemented with L-glutamine (Lonza) (2 mM), 10% fetal bovine serum (FBS, Hyclone), 1 × non-essential amino acids, and sodium pyruvate (1 mM). THLE-2 cells were maintained in THLE-2 Cell Complete Medium (Zhong Qiao Xin Zhou, Shanghai, China). Cells were incubated at 37 °C in a humidified incubator with 5% CO2. A549 cells were previously stored in the lab and other cell lines were a gift from Haishan Wang’s lab (Institute of Molecular and Cell Biology, Singapore). All cell lines were confirmed to be contamination-free.
as §3

[13] = tested on: HEPG2: human liver cancer cell lines; assay: WST-1 cell viability, HEPG2; format: cell-based; details: HEPG2 (liver) cancer cell line
Source text: as §1, §2

Question: How did the IC50 [1] turn out when CCCCCCCC/C=C/CCCc1cc(=O)c2ccccc2[nH]1 [JH62, E-2-(tridec-4-en-1-yl)-quinolin-4(1H)-one] was run?
Answer: 37.1 ± 0.7 µM

Question: What about the IC50 [2] of the same compound?
Answer: > 25 µM

Question: And the IC50 [3]?
Answer: 13.8 ± 3.3 µM

Question: And the pqsH transcription [4]?
Answer: unaffected

Question: What about the “transcription of pqsA, pqsB, pqsC, pqsD, and pqsE” value [4] of the same compound?
Answer: markedly upregulated

Question: What about the IC50 [5] of the same compound?
Answer: 13.6 ± 2.7 µM

Question: And the IC50 (cancer cell lines)?
Answer: < 20 µM

Question: What about the IC50 [6] of the same compound?
Answer: 10.8 ± 0.4 µM

Question: And the IC50 [7]?
Answer: 44.1 ± 0.4 µM

Question: And the “reduced the number of A549 lung cancer cell colonies” value ([8]; 6.3 μM)?
Answer: 34%

Question: What about the “reduced the number of A549 lung cancer cell colonies” value ([8]; 12.5 μM) of the same compound?
Answer: 71%

Question: What about the IC50 [9] of the same compound?
Answer: 10 ± 0.2 µM

Question: And the “cell death type (reversal by zVAD-fmk and Nec-1)” value (A549 lung cancer cells)?
Answer: not associated with apoptosis or necroptosis

Question: What about the IC50 [10] of the same compound?
Answer: 27.3 ± 4.9 µM

Question: What about the IC50 [11] of the same compound?
Answer: 47.2 ± 4.8 µM

Question: What about the comet tail analysis (A549 cells) of the same compound?
Answer: maintenance of DNA integrity

Question: And the IC50 ([12]; A549 (lung) cancer cell line)?
Answer: 14.8 ± 0.1 µM

Question: And the reduced viability ([12]; A549, 12.5 μM)?
Answer: 20%

Question: And the viability decreased ([12]; A549, 12.5 μM, 32 h)?
Answer: 32%

Question: And the viability decreased ([12]; A549, 12.5 μM, 48 h)?
Answer: 19%

Question: And the reduced viability ([12]; A549, 25 μM)?
Answer: 48%

Question: What about the viability decreased ([12]; A549, 25 μM, 32 h) of the same compound?
Answer: 65%

Question: What about the viability decreased ([12]; A549, 25 μM, 48 h) of the same compound?
Answer: 74%

Question: And the reduced viability ([12]; A549, 50 μM)?
Answer: 78%

Question: What about the viability decreased ([12]; A549, 50 μM, 32 h) of the same compound?
Answer: 84%

Question: And the viability decreased ([12]; A549, 50 μM, 48 h)?
Answer: 92%

Question: What about the IC50 ([12]; Homo sapiens, A549, A549 (lung) cancer cell line) of the same compound?
Answer: 15 µM

Question: What about the IC50 [13] of the same compound?
Answer: 17.2 ± 0.6 µM
